By EC50 is commonly meant the concentration that produces a half-maximal response.

Where two headings read alike, the source gives them in different places.

The test system of data set [1] is W2. The data set can be described thus: Cross-resistance EC50 assay, W2 parent. The settings on record: Plasmodium falciparum, 48 h, read-out: W2F6 (PARENT) Average EC50. The data set is classed as cell-based, Plasmodium falciparum. The source says: (§1) Multidrug resistance alleles, including mutations in P. falciparum chloroquine resistance transporter (pfcrt) and P. falciparum multi-drug resistance transporter 1 (pfmdr1) are very common in field isolates. Therefore, we sought to assess the degree to which pre-existing resistance alleles would contribute to a loss of potency for this diverse collection of small molecule compounds. Fifteen clones derived from three main parent lines were chosen to maximize diversity in mutated pathways and genetic backgrounds, thus representing the variety of resistance seen in the field: 3D7 (ref. [23]), W2 (ref. [24]) or Dd2 (ref. [25]). The 3D7 line originates from the clone of a Netherlands clinical isolate strain[23][26] and is generally considered to be drug sensitive, though it does convey resistance to sulfadoxine. Conversely, W2 (ref. [24], [27]) and Dd2 (ref. [25]) are multi-drug-resistant lines originating from the Indochina III/CDC isolate, which contain point mutations in pfcrt as well as amplifications in pfmdr1 and GTP cyclohydrolase.
(§2) To evaluate potential overlapping activity against known antimalarial drug targets, we performed dose-response studies with each compound against our assembled set of drug-resistant lines and their corresponding parents, in an asexual blood stage proliferation assay (Table 1). Comparisons were made to the drug-sensitive strain 3D7 when a parent was unavailable (TM90C2A, W2 and Dd2). As laboratories conducted EC50 assays with different strains and protocols, all comparisons were made between assays from the same laboratory and under the same assay conditions. Compounds displaying >5-fold EC50 shifts relative to the parent or sensitive strain were flagged as having potentially non-novel targets. Average fold shifts per strain ranged from 0.82 to 2.34, with a median of 1.23 indicating there was not common resistance to any one resistant clone. No resistance patterns were observed when classifying the compounds based on chemical structure, but this was not surprising given the diversity of compounds chosen. On the other hand, given that these confirmed compounds were derived from larger unconfirmed hit lists to which some filtration criteria may have been applied (for example, elimination of obvious dihydrofolate reductase inhibitors[32]), some[10][11][12][13] pre-existing bias may exist in the set.
(§3) The 48-h assay was carried out in a 96-well format following standard methods using the ^3H-hypoxanthine incorporation assay. The raw EC50 values corresponding to this assay can be found in Supplementary Data 3. Briefly, this assay relies on the parasite incorporation of labelled hypoxanthine that is proportional to P. falciparum growth. A culture of parasitized RBCs (0.5% parasitemia with a percentage of ring stage higher than 70% of total parasitemia, 2.0% haematocrit) in RPMI-1640, […] and 5 μM hypoxanthine was exposed to drug serial dilutions. Plates were incubated for 24 h at 37 °C, 5% CO2, 5% O2 and 90% N2. After 24 h of incubation, ^3H-hypoxanthine was added and plates were incubated for an additional 24-h period. After that, parasites were harvested on a glass fibre filter using a TOMTEC Cell Harvester 96. Filters were dried and melt-on scintillator sheets were used to determine the incorporation of ^3H-hypoxanthine. Radioactivity was measured using a microbeta counter. Data were normalized using the incorporation of the positive (parasitized RBCs without drug) and negative (same culture with artesunate at 2 μM) controls. All assays were conducted in triplicate using three independently grown cultures, and EC50 values were determined using the XLfit add-in module for Excel (version 2.3.1) from Grafit (version 5.3.1.3), where parameter h is the assay hill slope, x is the compound concentration and y is the inhibition of growth effect. The XLfit equation is: […]
(§4) Alternatively, a SYBR Green-based proliferation approach was used for the 72-h assay, as previously described. […]

Data set [2] concerns 3D7. The data set can be described thus: Cross-resistance EC50 assay, 3D7 parent / sensitive strain. The note with it: Plasmodium falciparum, hypoxanthine 48-hour assay, synchronized parasites, 96-well format. The data set is classed as cell-based.
Text: as §1, §2, §3, §4

In data set [3] the test system is TM90C2A (DHFR, folate pathway; compared with 3D7). The data set can be described thus: Cross-resistance EC50 assay, TM90C2A. The settings on record: Plasmodium falciparum, 48 h, read-out: TM90C2A (3D7 Parent) Average EC50. The data set is classed as cell-based.
Text: as §2, §3
EC50 values for each strain were compared with those of the corresponding parent strain to determine fold-shift changes and identify resistance. To minimize the cause variance between assays, all comparisons were conducted between strains assayed under identical conditions. A one-way ANOVA followed by a Dunnet's post-test was conducted in GraphPad Prism to identify significant changes between the parent and resistant strain.

Data set [4] has as its system P. falciparum. The data set can be described thus: Rate of killing (parasite viability) assay. The note with it: profile compared with chloroquine, pyrimethamine, atovaquone; 48 h treatment. The format is cell-based, Plasmodium falciparum. The method, then: To identify whether selection success could be predicted by compound speed of action, and to gain a greater insight into the potential mechanisms of action, assays were performed to test the killing rate (Supplementary Data 1)[33]. To quantify the killing rate, viability time-course profiles for each compound were compared with antimalarials known to have fast (chloroquine), moderate (pyrimethamine) or slow (atovaquone) rate of action. These rates were then compared with other compound characteristics, including cross-resistance profile, selection success, potency and structural characteristics to identify any possible trends. […] One compound's rate of killing, MMV666080, was unidentifiable due to compound availability. No correlation was seen between compound structure and speed of action. Additionally, there was no correlation found between killing rate and compound potency against 3D7, nor between potency and selection success (Supplementary Fig. 2).
Rate of killing was determined for each compound following a previously described methodology, which uses the invasion of fresh erythrocytes as surrogate of parasite viability. Briefly, parasites were treated with compounds for 48 h. Compound was washed out and fresh-labelled erythrocytes added to the treated parasites. Double stained erythrocytes (RBC label plus parasite DNA label) were quantified and per cent of survival determined.

The subject of data set [5] is P. falciparum. Also noted: method as in PMID 26542470. The settings on record: known rate of action; cited from earlier work.
The subject of data set [6] is Stage 5 gametocytes from P. falciparum NF54. The data set can be described thus: Late-stage (stage V) gametocyte survival assay, MitoTracker. The format is cell-based, Plasmodium falciparum. The settings on record: Plasmodium falciparum; P. falciparum NF54, 72 h; read-out: Stage 5 Gametocyte EC50. The method, then:
The second assay was a late-stage (stage V) gametocyte survival assay, which predicts transmission-blocking activity. […] Positive and negative control compounds included puromycin (0.61±0.11 μM) and atovaquone (> 12.50 μM), respectively.
To test sexual-stage activity, compounds were tested against late-stage gametocytes using a MitoTracker fluorescent-based assay. Specifically, synchronized stage V gametocytes were incubated with compound for 72 h. MitoTracker Red CMXRos (Life Technologies) was added to each well (final concentration: 500 nM) together with saponin to lyse the RBCs. Each plate was then imaged with an Operetta High Content Imaging System (Perkin Elmer) for fluorescence (590–640 nm). Varying levels of compound concentration were used (1.25 μM or 12.5 μM) due to the stock concentration supplied.
The gametocytocidal activity was measured using high-content image analysis software (Harmony, Perkin Elmer). The readout was based on number of metabolically active gametocytes per well.

Data set [7] in a line: Hepatocyte toxicity. The format is cell-based, human. The note with it: human; read-out: HepG2 EC50 (hepatocyte toxicity). The text has this:
(§5) As drugs that eliminate multiple stages of the parasite lifecycle will be critical components in global efforts to eliminate malaria, we were interested in knowing whether the compounds in our study had additional activities against either the liver and/or transmission stages of the parasite lifecycle. To determine this, we first evaluated the compounds in additional phenotypic assays. The first assay was a P. berghei hepatocyte invasion and development assay, which predicts causal prophylactic activity. Hepatocyte toxicity was additionally tested to identify false-positive activity in the liver stage due to host-cell toxicity. Assays were executed in duplicate using a 12-point EC50 curve at starting concentrations of 5 μM or 50 μM (Supplementary Table 1).
(§6) Liver-stage activity was determined by pretreating hepatic human cells (HepG2) for 2 h with compound in 1,536-well plates infected with freshly dissected P. berghei sporozoites. After 48 h of incubation, the viability of P. berghei exoerythrocytic forms was measured by luminescence reaction light output using BrightGlo (Promega). Varying levels of compound concentration were used (5 μM or 50 μM) due to the stock concentration supplied.

Data set [8] deals with P. berghei exoerythrocytic forms. The data set can be described thus: Liver-stage P. berghei hepatocyte invasion and development assay (luminescence, HepG2). The format is cell-based, Plasmodium berghei. The note with it: Plasmodium berghei, HepG2, text values; read-out: Liver stage EC50 (PfLuc EC50).
Text: as §5, §6

The test system of data set [9] is MMV026596-selected cultures (parental line 3D7). Nature of the data set: EC50 on cultures selected with MMV026596. The format is cell-based, Plasmodium falciparum. The settings on record: hypersensitivity of cultures after 100 days of MMV026596 selection. The text has this:
While we found an overall lack of pre-existing resistance, analysing the onset of resistance was critical, as compounds resulting in rapid resistance are not ideal for clinical development. We therefore sought to create drug-resistant parasites using a variety of different selection methods. We implemented either a high-dose method or a ramp-up/pulse method for our in vitro selections. Two of the 50 compounds—MMV028895 and MMV665824—were removed from the selection study during experimentation. […] Out of the remaining 48 compounds, resistant parasites were obtained for 23 (Supplementary Data 1). As each selection was performed in triplicate with three independent cultures, we succeeded in generating a total of 66 resistant cultures. Parasites resistant to MMV026596 were not obtained despite 100 days of selection, but the cultures acquired hypersensitivity to mefloquine with a 10-fold reduction in EC50 compared with its parental line, 3D7. For the remaining 24 compounds, acquisition of resistant parasites was unsuccessful despite numerous attempts over an extensive period of time.

`COc1ccc(NC(=O)N2CCCCN3[C@H](CO)[C@H](c4ccc(C#Cc5ccccc5)cc4)[C@@H]3C2)cc1` [BRD3444]: the EC50 in data set [1] worked out at 31 nM; in [2] (strain 3D7 (parent), read-out: 3D7 (PARENT) Average EC50) it was 45 nM; in [2] (strain 3D7-C9-WT (parent of PfATP4 Mut3), read-out: 3D7-C9-WT (PARENT) Average EC50) it was 35 nM; in data set [3], 37 nM.

As to `Cn1c(C(=O)c2cccc3ccccc23)nc2ccccc21` [MMV665824], the “Killing Rate” value in [4] is on record as “ATQ (slow)”.

Turning to `O=C1C(O)=C([C@H]2CC[C@H](c3ccc(Cl)cc3)CC2)C(=O)c2ccccc21` [atovaquone, reference compound], the “rate of action of comparator antimalarials” value in [5] is given as “slow”. Moreover, the EC50 in [6] is over 12500 nM; in data set [7], 7720 ± 1370 nM; in data set [8] it was 0.419 ± 0.044 nM.

For `CCN(CC)CCCC(C)Nc1ccnc2cc(Cl)ccc12` (stereo not drawn) [chloroquine], in [5], the “rate of action of comparator antimalarials” value is “fast”.

For `OC(c1cc(C(F)(F)F)nc2c(C(F)(F)F)cccc12)C1CCCCN1` (stereo not drawn) [mefloquine], the “reduction in EC50 compared with parental line 3D7” value in data set [9] stood at 10 fold.

Consider `COc1ccc(C[C@H](N)C(=O)N[C@H]2[C@@H](O)[C@H](n3cnc4c(N(C)C)ncnc43)O[C@@H]2CO)cc1` [puromycin, reference compound], for which the 50% effective concentration (EC50) in data set [6] amounted to 610 ± 110 nM; in data set [7], 254 ± 36.6 nM; in data set [8], 32.7 ± 29.7 nM.

Regarding `CCc1nc(N)nc(N)c1-c1ccc(Cl)cc1` [pyrimethamine], in [5], the “rate of action of comparator antimalarials” value is listed as “moderate”.

These data come from article PMC4912613, “A broad analysis of resistance development in the malaria parasite” (Nature Communications, 2016).
